This test addresses Sushi domains (SD1/2) protein. The experiment in a line: Fluorescence polarization (FP) competition assay with AJAP-1probe, calculated Ki. Type of test: binding. The procedure, abridged: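 Ki values were derived from IC50s (sigmoidal fits, ≥ triplicate), with probe Kd obtained by saturation titration of SD1/2. Peptides displaced a 25 nM TAMRA-labelled probe; polarization read at 530/580 nm in 1% BSA-containing PBS, pH 7.4, room temperature.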

[1] abbreviates: Table 10, deep mutational scanning validation variants of APPWT, read-out: Ki (nM) mean ± SEM.
Setting [2] is: Table 16, ncAAs incorporated peptides, read-out: Ki (nM) mean ± SEM.
Where [3] appears, read: Table 7, Ala-, D-amino acids and N-methylation scans of APPWT, read-out: Ki (nM) mean ± SEM.
Where [4] appears, read: Table 12, deep mutational scanning validation variants of PIANPWT, read-out: Ki (nM) mean ± SEM.

Like-named read-outs stand apart in the source and are kept apart here. Non-standard residues stand in square brackets, D forms with d. Residues, ends and D or L forms follow the SMILES beside them. NMeW = CN[C@@H](Cc1c[nH]c2ccccc12)C(=O)O; NMeE = CN[C@@H](CCC(=O)O)C(=O)O; NMeD = CN[C@@H](CC(=O)O)C(=O)O; Sar = CNCC(=O)O

As to `CC[C@H](C)[C@H](NC(=O)[C@@H](NC(=O)[C@H](CC(=O)O)NC(=O)[C@H](CO)NC(=O)[C@H](CC(=O)O)NC(=O)[C@H](CC(=O)O)NC(=O)[C@H](CCC(=O)O)NC(C)=O)C(C)C)C(=O)N[C@@H](Cc1c[nH]c2ccccc12)C(=O)NCC(=O)NCC(=O)N[C@@H](C)C(=O)N[C@@H](CC(=O)O)C(=O)N[C@H](C(=O)N[C@@H](CC(=O)O)C(N)=O)[C@@H](C)O` (Ac-EDDSDVIWGGADTD-NH2), the Ki under setting [1] was 951 ± 20 nM.
With `CC(=O)N[C@@H](CCC(=O)O)C(=O)N[C@@H](CC(=O)O)C(=O)N[C@@H](CC(=O)O)C(=O)N[C@@H](CO)C(=O)N[C@@H](CC(=O)O)C(=O)N[C@H](C(=O)N[C@@H](Cc1c[nH]c2ccccc12)C(=O)N[C@@H](Cc1c[nH]c2ccccc12)C(=O)N[C@@H](Cc1c[nH]cn1)C(=O)NCC(=O)N[C@@H](C)C(=O)N[C@@H](CC(=O)O)C(=O)N[C@H](C(=O)N[C@@H](CC(=O)O)C(N)=O)[C@@H](C)O)C(C)C` (Ac-EDDSDVWWHGADTD-NH2), the Ki under setting [1] is 270 ± 4 nM.
`CC(=O)N[C@H](C(=O)N[C@@H](Cc1c[nH]c2ccccc12)C(=O)N[C@@H](Cc1c[nH]c2ccccc12)C(=O)NCC(=O)NCC(=O)N[C@@H](C)C(=O)N[C@@H](CC(=O)O)C(=O)N[C@H](C(=O)N[C@@H](CC(=O)O)C(=O)N[C@@H](Cc1ccc(O)cc1)C(=O)N[C@@H](C)C(=O)N[C@@H](CC(=O)O)C(N)=O)[C@@H](C)O)C(C)C` (Ac-VWWGGADTDYAD-NH2): where the note is “Table 4, truncation and elongation scans of APP epitope, read-out: Ki (nM) mean ± SEM”, the Ki was 60800 ± 5220 nM.
Consider `CCOc1ccc(C[C@H](NC(=O)[C@H](Cc2c[nH]c3ccccc23)NC(=O)[C@H](Cc2c[nH]c3ccccc23)NC(=O)[C@@H](NC(=O)[C@H](CC(=O)O)NC(=O)[C@H](CO)NC(=O)[C@H](CC(=O)O)NC(=O)[C@H](CC(=O)O)NC(=O)[C@H](CCC(=O)O)NC(C)=O)C(C)C)C(=O)NCC(=O)N[C@@H](C)C(=O)N[C@@H](CC(=O)O)C(=O)N[C@H](C(=O)N[C@@H](CC(=O)O)C(N)=O)[C@@H](C)O)cc1` (Ac-EDDSDVWWY(Et)GADTD-NH2), for which the Ki under setting [2] was 113 ± 2 nM.
`CC(=O)N[C@@H](CCC(=O)O)C(=O)N[C@@H](CC(=O)O)C(=O)N[C@@H](CC(=O)O)C(=O)N[C@@H](CO)C(=O)N[C@@H](CC(=O)O)C(=O)N[C@H](C(=O)N[C@@H](Cc1c[nH]c2ccccc12)C(=O)N[C@@H](Cc1c[nH]c2ccccc12)C(=O)NCC(=O)N(C)CC(=O)N[C@@H](C)C(=O)N[C@@H](CC(=O)O)C(=O)N[C@H](C(=O)N[C@@H](CC(=O)O)C(N)=O)[C@@H](C)O)C(C)C` (Ac-EDDSDVWWG[Sar]ADTD-NH2): the Ki is, setting by setting: under setting [3], 161 ± 2 nM; (Table 13, peptides for affinity maturation, read-out: Ki (nM) mean ± SEM) 161 ± 2 nM.
Consider `CC[C@H](C)[C@H](NC(=O)[C@H](C)NC(=O)[C@H](Cc1c[nH]c2ccccc12)NC(=O)[C@@H]1CCCN1C(C)=O)C(=O)N[C@H](C(=O)N[C@@H](Cc1c[nH]c2ccccc12)C(=O)NCC(=O)N1CCC[C@H]1C(=O)N[C@H](C(=O)N[C@H](C(=O)N[C@@H](CO)C(=O)N[C@@H](CCCNC(=N)N)C(=O)N[C@@H](CCC(=O)O)C(=O)N(C)[C@@H](CC(=O)O)C(N)=O)C(C)C)[C@@H](C)O)C(C)C` (Ac-PWAIVWGPTVSRE[NMeD]-NH2), for which the Ki (Table 9, Ala-, D-amino acids and N-methylation scans of PIANPWT, read-out: Ki (nM) mean ± SEM) was 434 ± 10 nM.
Regarding `CC[C@H](C)[C@H](NC(=O)[C@H](Cc1ccccc1)NC(=O)[C@H](CCC(=O)O)NC(=O)[C@@H](NC(=O)[C@H](CCC(=O)O)NC(C)=O)[C@@H](C)O)C(=O)N[C@@H](C)C(=O)N[C@@H](Cc1c[nH]c2ccccc12)C(=O)NCC(=O)N1CCC[C@H]1C(=O)N[C@H](C(=O)NCC(=O)N[C@@H](CC(=O)O)C(=O)N(C)[C@@H](CCC(=O)O)C(=O)N[C@@H](CC(=O)O)C(N)=O)[C@@H](C)O` (Ac-ETEFIAWGPTGD[NMeE]D-NH2), the Ki (Table 8, Ala-, D-amino acids and N-methylation scans of AJAP-1WT, read-out: Ki (nM) mean ± SEM) is 31 ± 1 nM.
As to `CC(=O)N[C@@H](CCC(=O)O)C(=O)N[C@@H](CC(=O)O)C(=O)N[C@@H](CC(=O)O)C(=O)N[C@@H](CO)C(=O)N[C@@H](CC(=O)O)C(=O)N[C@H](C(=O)N[C@@H](Cc1c[nH]c2ccccc12)C(=O)N(C)[C@@H](Cc1c[nH]c2ccccc12)C(=O)NCC(=O)NCC(=O)N[C@@H](C)C(=O)N[C@@H](CC(=O)O)C(=O)N[C@H](C(=O)N[C@@H](CC(=O)O)C(N)=O)[C@@H](C)O)C(C)C` [EDDSDVW(N-Me-W)GGADTD] (Ac-EDDSDVW[NMeW]GGADTD-NH2), the Ki under setting [3] was 1380 ± 16 nM.
For `CC[C@H](C)[C@H](NC(=O)[C@H](Cc1ccccc1)NC(=O)[C@H](CCC(=O)O)NC(=O)[C@@H](NC(=O)[C@@H](NC(C)=O)C(C)C)[C@@H](C)O)C(=O)N[C@@H](C)C(=O)N[C@@H](Cc1c[nH]c2ccccc12)C(=O)NCC(=O)N1CCC[C@H]1C(=O)N[C@H](C(=O)NCC(=O)N[C@@H](CC(=O)O)C(=O)N[C@@H](CCC(=O)O)C(=O)N[C@@H](CC(=O)O)C(N)=O)[C@@H](C)O` [VTEFIAWGPTGDED], the Ki (Table 11, deep mutational scanning validation variants of AJAP-1WT, read-out: Ki (nM) mean ± SEM) was 67 ± 1 nM.
With `CC[C@H](C)[C@H](NC(=O)[C@H](Cc1c[nH]c2ccccc12)NC(=O)[C@H](CC(=O)O)NC(=O)[C@H](CC(=O)O)NC(=O)[C@H](CC(=O)O)NC(=O)[C@H](CCC(=O)O)NC(=O)[C@H](CCCCN)NC(=O)[C@H](C)NC(=O)[C@H](C)NC(=O)[C@H](C)NC(=O)[C@H](CCC(=O)O)NC(=O)[C@H](CCCNC(=N)N)NC(=O)[C@H](CCCNC(=N)N)NC(=O)[C@H](CCCNC(=N)N)NC(=O)[C@H](CCCNC(=N)N)NC(=O)[C@H](CCCNC(=N)N)NC(=O)[C@H](CCCNC(=N)N)NC(=O)[C@H](CCCNC(=N)N)NC(=O)[C@H](CCCNC(=N)N)NC(C)=O)C(=O)N[C@@H](CC(=O)O)C(=O)N[C@@H](Cc1c[nH]c2ccccc12)C(=O)NCC(=O)N1CCC[C@H]1C(=O)N[C@H](C(=O)N[C@@H](CO)C(=O)N[C@@H](CC(=O)O)C(=O)N[C@@H](CC(=O)O)C(=O)N[C@@H](CC(=O)O)C(N)=O)[C@@H](C)O` [Peptide R8-RL-17] (Ac-RRRRRRRREAAAKEDDDWIDWGPTSDDD-NH2), the Ki (CPP tagged peptides overview, SD1/2 binding affinity, mean ± SEM, n ≥ 3, read-out: Ki) was 105 ± 2 nM and the Ki (Table 14, CPPs tagged peptides, read-out: Ki (nM) mean ± SEM) was 105 ± 2 nM.
As to `CC[C@H](C)[C@H](NC(=O)[C@H](C)NC(=O)[C@H](Cc1c[nH]cn1)NC(=O)[C@@H]1CCCN1C(C)=O)C(=O)N[C@H](C(=O)N[C@@H](Cc1c[nH]c2ccccc12)C(=O)NCC(=O)N1CCC[C@H]1C(=O)N[C@H](C(=O)N[C@H](C(=O)N[C@@H](CO)C(=O)N[C@@H](CCCNC(=N)N)C(=O)N[C@@H](CCC(=O)O)C(=O)N[C@@H](CC(=O)O)C(N)=O)C(C)C)[C@@H](C)O)C(C)C` [PHAIVWGPTVSRED] (Ac-PHAIVWGPTVSRED-NH2), the Ki under setting [4] is 1500 ± 50 nM.
For `CCOc1ccc(C[C@H](NC(=O)[C@H](CC(=O)O)NC(=O)[C@H](CC(=O)O)NC(=O)[C@H](CC(=O)O)NC(=O)[C@H](CCC(=O)O)NC(C)=O)C(=O)N[C@H](C(=O)N[C@@H](CC(=O)O)C(=O)N[C@@H](Cc2c[nH]c3ccccc23)C(=O)N[C@@H](Cc2ccc(O)cc2)C(=O)N[C@@H](CC(=O)O)C(=O)N[C@@H](CO)C(=O)N[C@@H](CC(=O)O)C(=O)N[C@@H](CC(=O)O)C(=O)N[C@@H](CC(=O)O)C(N)=O)[C@@H](C)CC)cc1` [Peptide 32], the Ki is 5.3 ± 0.2 nM (Table 1, affinity maturation, mean ± SEM, n ≥ 3, read-out: Ki) and 5.3 ± 0.2 nM under setting [2].
In the case of `CC[C@H](C)[C@H](NC(=O)[C@H](Cc1ccccc1)NC(=O)[C@H](Cc1c[nH]c2ccccc12)NC(=O)[C@@H]1CCCN1C(C)=O)C(=O)N[C@H](C(=O)N[C@@H](Cc1c[nH]c2ccccc12)C(=O)NCC(=O)N1CCC[C@H]1C(=O)N[C@H](C(=O)N[C@H](C(=O)N[C@@H](CO)C(=O)N[C@@H](CC(=O)O)C(=O)N[C@@H](CCC(=O)O)C(=O)N[C@@H](CC(=O)O)C(N)=O)C(C)C)[C@@H](C)O)C(C)C` [PWFIVWGPTVSDED] (Ac-PWFIVWGPTVSDED-NH2), under setting [4], the Ki is 192 ± 4 nM.
